# Source: the NIST ThermoML archive (doi:10.1016/j.fluid.2010.08.022)
# Numbers after ± are expanded uncertainties.
# Assay: refractive index (Na D-line) (dimensionless)
# Settings: 101.33 kPa, Standard Abbe refractometry
"refractive index (278.45 K, Crystal)","refractive index (288.35 K, Liquid crystal of unknown type)","refractive index (298.15 K, Liquid crystal of unknown type)","refractive index (308.25 K, Liquid crystal of unknown type)","refractive index (313.21 K, Liquid crystal of unknown type)","refractive index (323.45 K, Liquid crystal of unknown type)","refractive index (333.25 K, Liquid crystal of unknown type)","refractive index (278.35 K, Liquid crystal of unknown type)","refractive index (288.25 K, Liquid crystal of unknown type)","refractive index (298.05 K, Liquid crystal of unknown type)","refractive index (308.22 K, Liquid crystal of unknown type)","refractive index (318.23 K, Liquid crystal of unknown type)","refractive index (328.05 K, Liquid crystal of unknown type)","refractive index (338.05 K, Liquid crystal of unknown type)","refractive index (341.15 K, Liquid crystal of unknown type)","refractive index (343.25 K, Liquid crystal of unknown type)",SMILES
1.496 ± 0.00069,1.49406 ± 0.00068,1.48994 ± 0.00068,1.48558 ± 0.00068,1.48343 ± 0.00068,1.47901 ± 0.00068,1.4747 ± 0.00068,,,,,,,,,,CCCCCCCC/C=C\CCCCCCCC(=O)O.NCCO [2-hydroxyethylammonium oleate]
,,,,,,,1.4956 ± 0.00068,1.49226 ± 0.00068,1.48855 ± 0.00068,1.48463 ± 0.00068,1.48023 ± 0.00068,1.47673 ± 0.00068,1.47267 ± 0.00068,1.47055 ± 0.00075,1.46364 ± 0.00094,CCCCCCCC/C=C\CCCCCCCC(=O)[O-].OCC[NH2+]CCO [bis(2-hydroxyethyl)ammonium oleate]
